From patent US12570642B2, “GLP-IR modulating compounds” (Gilead Sciences, Inc., priority 2021, dated 2026)
pEC50: −log10 of the molar value.

Target: GLP-1R (Homo sapiens, UniProt P43220)
Assay: GLP-1R Activation - cAMP Assay
Format: cell-based
Details: […]; each compound run on one of the two cAMP assays (Assay 1 or Assay 2, not specified)
Procedure: GLP-1R Activation—cAMP Assay 1
GLP-1R activation by compounds of the present disclosure were quantified by measuring cAMP increase in CHO cells stably expressing GLP-1R (MultiSpan product #C1267-1a). The cells were harvested and plated in growth medium (DMEM/F-12 (Corning product #10-090-CV) supplemented with 10% FBS (HyClone product #SH30071-03), penicillin/streptomycin (Corning product #30-002CI) and 10 μg/ml puromycin (Gibco product #A11138-03)) at 1,000 cells/well in a 384-well plate (Greiner product #781080). The cells were then incubated overnight at 37° C., 5% CO2. The next day, the medium was removed and the cells were washed with DPBS (Corning product #21-031-CM) before adding the assay medium (HBSS, Corning product #21-023-CV) with 20 mM Hepes (Gibco product #15630-080) and 0.1% BSA (Rockland Immunochemicals product #BSA-1000)). Following the medium change, the cells were incubated for 1 hour at 37° C., 5% CO2. The tested GLP-1 compound was added to the cells in a 10-point dose response followed by a 30 minutes incubation at 37° C., 5% CO2. cAMP concentration increase was then detected using Cisbio's cAMP Gs Dynamic Kit (product #62AM4PEC) according to the manufacturer's protocol. The response was plotted against the log of the agonist concentration and fitted to a sigmoidal equation to determine the EC50.

Sequence of GLP-1R (P43220 24-463): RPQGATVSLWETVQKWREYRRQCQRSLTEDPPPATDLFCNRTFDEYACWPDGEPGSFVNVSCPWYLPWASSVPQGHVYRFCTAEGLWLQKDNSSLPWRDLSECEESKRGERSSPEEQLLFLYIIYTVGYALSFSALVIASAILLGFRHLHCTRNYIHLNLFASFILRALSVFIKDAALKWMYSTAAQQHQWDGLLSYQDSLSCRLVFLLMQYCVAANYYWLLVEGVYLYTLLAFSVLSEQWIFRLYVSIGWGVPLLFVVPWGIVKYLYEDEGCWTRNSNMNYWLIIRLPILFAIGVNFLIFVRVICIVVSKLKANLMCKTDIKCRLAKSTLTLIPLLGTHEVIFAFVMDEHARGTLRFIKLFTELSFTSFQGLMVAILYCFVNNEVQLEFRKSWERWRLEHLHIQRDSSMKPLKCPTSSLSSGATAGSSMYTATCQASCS

First: N#Cc1ccc(COc2cccc(-c3cc(F)c(Cc4nc5ccc(C(=O)O)cc5n4[C@@H]4CNC(=O)C4)cc3F)n2)c(F)c1 [Example 2, (S)-2-(4-(6-((4-cyano-2-fluorobenzyl)oxy)pyridin-2-yl)-2,5-difluorobenzyl)-1-(5-oxopyrrolidin-3-yl)-1H-benzo[d]imidazole-6-carboxylic acid]
Second: N#Cc1ccc(COc2cccc(-c3cc(F)c(Cc4nc5ccc(C(=O)O)cc5n4[C@H]4CNC(=O)C4)cc3F)n2)c(F)c1 [Example 3, (R)-2-(4-(6-((4-cyano-2-fluorobenzyl)oxy)pyridin-2-yl)-2,5-difluorobenzyl)-1-(5-oxopyrrolidin-3-yl)-1H-benzo[d]imidazole-6-carboxylic acid]
The pEC50 of the first is 1.13 log units lower: 6.81 for the first, 7.94 for the second. The second is the more potent here.

`CC(=O)N1C[C@H](n2c(Cc3cc(F)c(-c4cccc(OCc5ccc(C#N)cc5F)n4)cc3F)nc3ccc(C(=O)O)cc32)C2(CC2)C1` [Example 14] and `CC(=O)N1C[C@@H](n2c(Cc3cc(F)c(-c4cccc(OCc5ccc(C#N)cc5F)n4)cc3F)nc3ccc(C(=O)O)cc32)C2(CC2)C1` [Example 15, (S)-1-(5-acetyl-5-azaspiro[2.4]heptan-7-yl)-2-(4-(6-((4-cyano-2-fluorobenzyl)oxy)pyridin-2-yl)-2,5-difluorobenzyl)-1H-benzo[d]imidazole-6-carboxylic Acid] are within 0.2 log units of each other in pEC50: 7.10 for the first, 7.15 for the second.

With `CO[C@H]1CN(C(C)=O)C[C@@H]1n1c(Cc2cc(F)c(-c3cccc(OCc4ccc(C#N)cc4F)n3)cc2F)nc2ccc(C(=O)O)cc21` [Example 16, 1-((3S,4S)-1-acetyl-4-methoxypyrrolidin-3-yl)-2-(4-(6-((4-cyano-2-fluorobenzyl)oxy)pyridin-2-yl)-2,5-difluorobenzyl)-1H-benzo[d]imidazole-6-carboxylic Acid] the pEC50 was 5.32.

Same assay, conditions: cAMP increase in CHO cells stably expressing GLP-1R; each compound run on one of the two cAMP assays (Assay 1 or Assay 2, not specified)

First: CC1(C)COC[C@@H]1n1c(Cc2cc(F)c(-c3cccc(OCc4ccc(C(F)F)cc4F)n3)cc2F)nc2ccc(C(=O)O)cc21 (single isomer, unassigned) [Example 383B]
Second: CC1(C)COC[C@H]1n1c(Cc2cc(F)c(-c3cccc(OCc4ccc(C(F)F)cc4F)n3)cc2F)nc2c(F)cc(C(=O)O)cc21 (single isomer, unassigned) [Example 502A]
The pEC50 of the first is 0.54 log units lower: 9.01 for the first, 9.55 for the second.

Compared with `CC1(C)COC[C@H]1n1c(Cc2cc(F)c(-c3cccc(OCc4ccc(Cl)cc4)n3)cc2F)nc2ccc(C(=O)O)cc21` (single isomer, unassigned) [Example 385A], `CC1(C)COC[C@@H]1n1c(Cc2cc(F)c(-c3cccc(OCc4ccc(Cl)cc4)n3)cc2F)nc2ccc(C(=O)O)cc21` (single isomer, unassigned) [Example 385B] is 1.10 log units lower in pEC50: 10.05 for the first, 8.95 for the second. The first is the more potent here.

Compared with `CO[C@@H]1CCOC[C@@H]1n1c(Cc2cc(F)c(-c3cccc(OCc4ccc(C#N)cc4F)n3)cc2F)nc2ccc(C(=O)O)cc21` (single isomer, unassigned) [Example 408], `CO[C@H]1CCOC[C@H]1n1c(Cc2cc(F)c(-c3cccc(OCc4ccc(C#N)cc4F)n3)cc2F)nc2ccc(C(=O)O)cc21` (single isomer, unassigned) [Example 409] is 0.34 log units higher in pEC50: 9.20 for the first, 9.54 for the second. The second is the more potent here.

Going from `N#Cc1ccc(COc2cccc(-c3cc(F)c(Cc4nc5ccc(C(=O)O)cc5n4[C@@H]4COC[C@@H]4CO)cc3F)n2)c(F)c1` (single isomer, unassigned) [Example 435] to `N#Cc1ccc(COc2cccc(-c3cc(F)c(Cc4nc5ccc(C(=O)O)cc5n4[C@H]4COC[C@H]4CO)cc3F)n2)c(F)c1` (single isomer, unassigned) [Example 436], the pEC50 falls from 10.22 to 9.00 (1.22 log units).

First: CO[C@]1(C)COC[C@@H]1n1c(Cc2cc(F)c(-c3cccc(OCc4ccc(Cl)cc4F)n3)cc2F)nc2ccc(C(=O)O)cc21 (single isomer, unassigned) [Example 473]
Second: CO[C@@]1(C)COC[C@H]1n1c(Cc2cc(F)c(-c3cccc(OCc4ccc(Cl)cc4F)n3)cc2F)nc2ccc(C(=O)O)cc21 (single isomer, unassigned) [Example 474]
The pEC50 of the first is 0.30 log units higher: 10.04 for the first, 9.74 for the second. The first is the more potent here.

Going from `CC1(C)COC[C@@H]1n1c(Cc2cc(F)c(-c3cccc(OCc4ccc(C(F)F)cc4F)n3)cc2F)nc2c(F)cc(C(=O)O)cc21` (single isomer, unassigned) [Example 502B] to `CC1(C)COC[C@@H]1n1c(Cc2cc(F)c(-c3cccc(OCc4ccc(C#N)cc4F)n3)cc2F)nc2c(F)cc(C(=O)O)cc21` [Example 11, (R)-2-(4-(6-((4-cyano-2-fluorobenzyl)oxy)pyridin-2-yl)-2,5-difluorobenzyl)-1-(4,4-dimethyltetrahydrofuran-3-yl)-4-fluoro-1H-benzo[d]imidazole-6-carboxylic Acid], the pEC50 rises from 9.03 to 9.59 (0.56 log units).

`COC[C@@]1(C)COCC1n1c(Cc2cc(F)c(-c3cccc(OCc4ccc(Cl)cc4F)n3)cc2F)nc2ccc(C(=O)O)cc21` (single isomer, unassigned) [Example 546] and `COC[C@]1(C)COCC1n1c(Cc2cc(F)c(-c3cccc(OCc4ccc(Cl)cc4F)n3)cc2F)nc2ccc(C(=O)O)cc21` (stereo in doubt) [Example 549, 2-(4-(6-((4-chloro-2-fluorobenzyl)oxy)pyridin-2-yl)-2,5-difluorobenzyl)-1-((3R,4S)-4-(methoxymethyl)-4-methyltetrahydrofuran-3-yl)-1H-benzo[d]imidazole-6-carboxylic acid] are within 0.2 log units of each other in pEC50: 9.15 for the first, 9.14 for the second.

Going from `COC[C@@]1(C)COCC1n1c(Cc2cc(F)c(-c3cccc(OCc4ccc(Cl)cc4F)n3)cc2F)nc2ccc(C(=O)O)cc21` (single isomer, unassigned) [Example 547] to `O=C(O)c1ccc2nc(Cc3cc(F)c(-c4cccc(OCc5ccc(Cl)cc5F)n4)cc3F)n(C3COC4CC3C4)c2c1` (stereo in doubt) [Example 572, (R)-1-(2-oxabicyclo[3.1.1]heptan-4-yl)-2-(4-(6-((4-chloro-2-fluorobenzyl)oxy)pyridin-2-yl)-2,5-difluorobenzyl)-1H-benzo[d]imidazole-6-carboxylic acid], the pEC50 falls from 10.62 to 9.49 (1.13 log units). The first is the more potent here.

Compared with `O=C(O)c1ccc2nc(Cc3cc(F)c(-c4cccc(OCc5ccc(Cl)cc5F)n4)cc3F)n(C3COC4CC3C4)c2c1` (stereo in doubt) [Example 573, (S)-1-(2-oxabicyclo[3.1.1]heptan-4-yl)-2-(4-(6-((4-chloro-2-fluorobenzyl)oxy)pyridin-2-yl)-2,5-difluorobenzyl)-1H-benzo[d]imidazole-6-carboxylic acid], `N#Cc1ccc(COc2cccc(-c3cc(F)c(Cc4nc5ccc(C(=O)O)cc5n4[C@H]4CCOC4)cc3F)n2)c(F)c1` [Example 1, (S)-2-(4-(6-((4-cyano-2-fluorobenzyl)oxy)pyridin-2-yl)-2,5-difluorobenzyl)-1-(tetrahydrofuran-3-yl)-1H-benzo[d]imidazole-6-carboxylic acid] is 0.78 log units lower in pEC50: 9.73 for the first, 8.95 for the second. The first is the more potent here.

Compared with `N#Cc1ccc(COc2cccc(-c3cc(F)c(Cc4nc5ccc(C(=O)O)cc5n4[C@@H]4C[C@@H]4C(F)F)cc3F)n2)c(F)c1` [Example 4, 2-(4-(6-((4-cyano-2-fluorobenzyl)oxy)pyridin-2-yl)-2,5-difluorobenzyl)-1-((1R,2S)-2-(difluoromethyl)cyclopropyl)-1H-benzo[d]imidazole-6-carboxylic acid], `N#Cc1ccc(COc2cccc(-c3cc(F)c(Cc4nc5ccc(C(=O)O)cc5n4[C@@H]4CCOC4)cc3F)n2)c(F)c1` [Example 5, (R)-2-(4-(6-((4-cyano-2-fluorobenzyl)oxy)pyridin-2-yl)-2,5-difluorobenzyl)-1-(tetrahydrofuran-3-yl)-1H-benzo[d]imidazole-6-carboxylic acid] is 0.53 log units higher in pEC50: 8.58 for the first, 9.11 for the second. The second is the more potent here.

Going from `N#Cc1ccc(COc2cccc(-c3cc(F)c(Cc4nc5ccc(C(=O)O)cc5n4C4CCCC4)cc3F)n2)c(F)c1` [Example 6, 2-(4-(6-((4-cyano-2-fluorobenzyl)oxy)pyridin-2-yl)-2,5-difluorobenzyl)-1-cyclopentyl-1H-benzo[d]imidazole-6-carboxylic acid] to `CC1(C)COC[C@H]1n1c(Cc2cc(F)c(-c3cccc(OCc4ccc(C#N)cc4F)n3)cc2F)nc2c(F)cc(C(=O)O)cc21` [Example 12, (S)-2-(4-(6-((4-cyano-2-fluorobenzyl)oxy)pyridin-2-yl)-2,5-difluorobenzyl)-1-(4,4-dimethyltetrahydrofuran-3-yl)-4-fluoro-1H-benzo[d]imidazole-6-carboxylic Acid], the pEC50 rises from 8.07 to 10.52 (2.45 log units).

Compared with `COCCn1c(Cc2cc(F)c(-c3cccc(OCc4ccc(-c5cnn(C(F)(F)F)c5)cc4F)n3)cc2F)nc2ccc(C(=O)O)cc21` [Example 7, 2-(2,5-difluoro-4-(6-((2-fluoro-4-(1-(trifluoromethyl)-1H-pyrazol-4-yl)benzyl)oxy)pyridin-2-yl)benzyl)-1-(2-methoxyethyl)-1H-benzo[d]imidazole-6-carboxylic acid], `CC1(C)COCC1n1c(Cc2cc(F)c(-c3cccc(OCc4ccc(C#N)cc4F)n3)cc2F)nc2c(Br)cc(C(=O)O)cc21` (centres unmarked) [Example 13, 4-bromo-2-(4-(6-((4-cyano-2-fluorobenzyl)oxy)pyridin-2-yl)-2,5-difluorobenzyl)-1-(4,4-dimethyltetrahydrofuran-3-yl)-1H-benzo[d]imidazole-6-carboxylic Acid] is 0.50 log units higher in pEC50: 9.22 for the first, 9.72 for the second.
